Test results: patent publication US10766884B2 (Pfizer Inc., priority 2018, dated 2020)

What was measured:
CDK4/Cyclin D1 = CDK4/Cyclin D1 (Homo sapiens (Human), UniProt P11802); test: CDK4/Cyclin D1 mobility shift assay; assay type: biochemical; conditions: activated CDK4/Cyclin D1, 3.5 mM ATP, Morrison fit; read-out: CDK4D1 Ki
CDK6/Cyclin D3 = CDK6/Cyclin D3 (Homo sapiens (Human), UniProt Q00534); test: CDK6/Cyclin D3 mobility shift assay; assay type: biochemical; conditions: activated CDK6/Cyclin D3, 3.5 mM ATP, Morrison fit; read-out: CDK6_D3 Ki
Chain of CDK6/Cyclin D3 (Q00534 whole entry): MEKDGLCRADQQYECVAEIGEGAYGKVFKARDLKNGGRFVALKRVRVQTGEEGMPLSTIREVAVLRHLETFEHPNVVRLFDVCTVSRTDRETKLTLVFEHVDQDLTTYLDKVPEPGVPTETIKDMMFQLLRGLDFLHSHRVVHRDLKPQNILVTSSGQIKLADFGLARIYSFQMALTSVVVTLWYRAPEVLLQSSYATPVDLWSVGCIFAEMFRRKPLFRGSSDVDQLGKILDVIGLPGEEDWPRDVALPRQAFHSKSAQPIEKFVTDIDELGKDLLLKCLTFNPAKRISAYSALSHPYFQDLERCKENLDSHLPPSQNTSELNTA
Chain of CDK6/Cyclin D3 (P30281 whole entry partner): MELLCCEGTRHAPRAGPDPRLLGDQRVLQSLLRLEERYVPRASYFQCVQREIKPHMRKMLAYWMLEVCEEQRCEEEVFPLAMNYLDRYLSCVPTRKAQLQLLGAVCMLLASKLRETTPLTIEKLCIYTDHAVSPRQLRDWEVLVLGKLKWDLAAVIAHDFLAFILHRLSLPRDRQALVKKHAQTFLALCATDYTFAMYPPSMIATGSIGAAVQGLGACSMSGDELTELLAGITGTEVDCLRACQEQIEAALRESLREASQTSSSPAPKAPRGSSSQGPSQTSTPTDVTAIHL

CDK4 = CDK4 (Homo sapiens (Human), UniProt P11802); test: Phospho-Serine 795 Rb ELISA assay in JEKO-1 cells; assay type: cell-based; conditions: overnight treatment, phospho-Rb S795, read-out: CDK4 pRB S795 ELISA JEKO-1 cells IC50
Chain of CDK4 (P11802 2-303): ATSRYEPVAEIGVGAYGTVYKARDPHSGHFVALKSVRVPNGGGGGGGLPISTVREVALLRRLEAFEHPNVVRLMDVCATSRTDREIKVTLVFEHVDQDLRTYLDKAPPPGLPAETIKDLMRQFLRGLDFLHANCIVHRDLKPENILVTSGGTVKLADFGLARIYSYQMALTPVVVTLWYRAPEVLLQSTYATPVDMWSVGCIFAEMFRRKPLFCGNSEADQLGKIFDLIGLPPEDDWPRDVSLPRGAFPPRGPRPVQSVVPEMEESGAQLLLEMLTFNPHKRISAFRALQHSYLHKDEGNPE
Chain of CDK4 (P24385 whole entry partner): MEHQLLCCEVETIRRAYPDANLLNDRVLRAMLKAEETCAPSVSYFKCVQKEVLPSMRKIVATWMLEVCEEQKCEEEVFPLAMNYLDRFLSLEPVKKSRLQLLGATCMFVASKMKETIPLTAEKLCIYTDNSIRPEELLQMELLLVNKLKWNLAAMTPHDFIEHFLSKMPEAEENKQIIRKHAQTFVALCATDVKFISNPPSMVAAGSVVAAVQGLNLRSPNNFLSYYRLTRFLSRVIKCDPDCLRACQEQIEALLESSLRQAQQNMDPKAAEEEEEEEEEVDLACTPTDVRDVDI

CDK6 = CDK6 (Homo sapiens (Human), UniProt Q00534); test: Phospho-Serine 795 Rb ELISA assay in MV4-11 cells; assay type: cell-based; conditions: overnight treatment, phospho-Rb S795, read-out: CDK6 pRB S795 ELISA MV4-11 cells IC50
Chain of CDK6 (Q00534 whole entry): as the sequence (Q00534 whole entry) above
Chain of CDK6 (P30281 whole entry partner): as the sequence (P30281 whole entry partner) above

Chain of CDK4/Cyclin D1 (P11802 whole entry): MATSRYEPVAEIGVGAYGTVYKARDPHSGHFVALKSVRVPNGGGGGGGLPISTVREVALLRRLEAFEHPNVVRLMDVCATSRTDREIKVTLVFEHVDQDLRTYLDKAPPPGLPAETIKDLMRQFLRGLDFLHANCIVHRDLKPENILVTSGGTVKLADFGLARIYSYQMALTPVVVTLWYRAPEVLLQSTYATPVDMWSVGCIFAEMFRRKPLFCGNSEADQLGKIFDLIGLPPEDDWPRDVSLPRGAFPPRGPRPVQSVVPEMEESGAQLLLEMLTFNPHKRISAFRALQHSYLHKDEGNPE
Chain of CDK4/Cyclin D1 (P24385 whole entry partner): as the sequence (P24385 whole entry partner) above

| Structure (SMILES) | Ki (CDK4/Cyclin D1) | Ki (CDK6/Cyclin D3) | IC50 (CDK4) | IC50 (CDK6) |
| --- | --- | --- | --- | --- |
| C[C@@H](O)c1nc2c(F)cc(-c3nc(N[C@@H]4CCN(S(C)(=O)=O)C[C@H]4O)ncc3Cl)cc2n1C(C)(C)C [Example A62, (3R,4R)-4-[(4-{1-tert-butyl-4-fluoro-2-[(1R)-1-hydroxyethyl]-1H-benzimidazol-6-yl}-5-chloropyrimidin-2-yl)amino]-1-(methanesulfonyl)piperidin-3-ol] | 0.0005 µM | 0.008 µM | 0.0275 µM | 0.0666 µM |
| CCc1nc2c(F)cc(-c3nc(N[C@@H]4CCN(S(C)(=O)=O)C[C@H]4O)ncc3Cl)cc2n1C1COC1 [Example A71, (3R,4R)-4-({5-chloro-4-[2-ethyl-4-fluoro-1-(oxetan-3-yl)-1H-benzimidazol-6-yl]pyrimidin-2-yl}amino)-1-(methanesulfonyl)piperidin-3-ol] | 0.0008 µM | 0.0114 µM | 0.0949 µM | 0.287 µM |
| CC(C)(C)n1cnc2ccc(-c3nc(N[C@@H]4CCN(S(C)(=O)=O)C[C@H]4O)ncc3F)cc21 [Example A77, (3R,4R)-4-{[4-(1-tert-butyl-1H-benzimidazol-6-yl)-5-fluoropyrimidin-2-yl]amino}-1-(methanesulfonyl)piperidin-3-ol] | 0.0003 µM | 0.0049 µM | 0.0611 µM | 0.126 µM |
| Cc1nc2ccc(-c3nc(N[C@@H]4CCN(S(C)(=O)=O)C[C@H]4O)ncc3F)cc2n1C(C)(C)C [Example A78, (3R,4R)-4-{[4-(1-tert-butyl-2-methyl-1H-benzimidazol-6-yl)-5-fluoropyrimidin-2-yl]amino}-1-(methanesulfonyl)piperidin-3-ol] | 0.0001 µM | 0.0018 µM | 0.0264 µM | 0.0739 µM |
| Cc1cc(-c2nc(N[C@@H]3CCN(S(C)(=O)=O)C[C@H]3O)ncc2F)cc2c1nc(C)n2C(C)C [Example A79, (3R,4R)-4-({4-[2,4-dimethyl-1-(propan-2-yl)-1H-benzimidazol-6-yl]-5-fluoropyrimidin-2-yl}amino)-1-(methanesulfonyl)piperidin-3-ol] | 0.0018 µM | 0.0176 µM | 0.598 µM | 1.14 µM |
| CC1(C)OCCn2nc3c(F)cc(-c4nc(N[C@@H]5CCOC[C@H]5O)ncc4F)cc3c21 [Example A80, 1,5-anhydro-2,3-dideoxy-3-{[5-fluoro-4-(7-fluoro-1,1-dimethyl-3,4-dihydro-1H-[1,4]oxazino[4,3-b]indazol-9-yl)pyrimidin-2-yl]amino}-D-threo-pentitol] | 0.0005 µM | 0.0147 µM | 0.0729 µM | 0.217 µM |
| Cc1cnc(N[C@@H]2CCN(S(C)(=O)=O)C[C@H]2O)nc1-c1cc(F)c2nc(C)n(C(C)C)c2c1 [Example A83, (3R,4R)-4-({4-[4-fluoro-2-methyl-1-(propan-2-yl)-1H-benzimidazol-6-yl]-5-methylpyrimidin-2-yl}amino)-1-(methanesulfonyl)piperidin-3-ol] | 0.0041 µM | 0.0885 µM | 0.395 µM | 1.22 µM |
| Cc1nc2c(F)cc(-c3nc(N[C@@H]4CCN(S(C)(=O)=O)C[C@H]4O)ncc3F)cc2n1C1CNC1 [Example A88, (3R,4R)-4-({4-[1-(azetidin-3-yl)-4-fluoro-2-methyl-1H-benzimidazol-6-yl]-5-fluoropyrimidin-2-yl}amino)-1-(methanesulfonyl)piperidin-3-ol] | 0.0045 µM | 0.0804 µM | 7.32 µM | 10 µM |
| CC(C(F)F)n1c(CO)nc2c(F)cc(-c3nc(N[C@@H]4CCN(S(C)(=O)=O)C[C@H]4O)ncc3Cl)cc21 (stereo partly drawn) [Example A92, (3R,4R)-4-({5-chloro-4-[1-(1,1-difluoropropan-2-yl)-4-fluoro-2-(hydroxymethyl)-1H-benzimidazol-6-yl]pyrimidin-2-yl}amino)-1-(methanesulfonyl)piperidin-3-ol] | 0.0001 µM | 0.0009 µM | 0.0238 µM | 0.0429 µM |
| Cc1nc2c(F)cc(-c3nc(N[C@@H]4CCN(S(C)(=O)=O)C[C@H]4O)ncc3C#N)cc2n1C(C)C [Example B01, 4-[4-fluoro-2-methyl-1-(propan-2-yl)-1H-benzimidazol-6-yl]-2-{[(3R,4R)-3-hydroxy-1-(methanesulfonyl)piperidin-4-yl]amino}pyrimidine-5-carbonitrile] | 0.0001 µM | 0.0015 µM | 0.0656 µM | 0.129 µM |
| Cc1nc2cc(Cl)c(-c3nc(N[C@@H]4CCN(S(C)(=O)=O)C[C@H]4O)ncc3F)cc2n1C(C)C [Example C01, (3R,4R)-4-({4-[5-chloro-2-methyl-1-(propan-2-yl)-1H-benzimidazol-6-yl]-5-fluoropyrimidin-2-yl}amino)-1-(methanesulfonyl)piperidin-3-ol] | 0.0052 µM | 0.0981 µM | 0.176 µM | 1.38 µM |
| Cc1nc2ccc(-c3cc(N[C@@H]4CCN(S(C)(=O)=O)C[C@H]4O)ncc3Cl)nc2n1C(C)C [Example D04, (3R,4R)-4-({5-chloro-4-[2-methyl-3-(propan-2-yl)-3H-imidazo[4,5-b]pyridin-5-yl]pyridin-2-yl}amino)-1-(methanesulfonyl)piperidin-3-ol] | 0.0006 µM | 0.0125 µM | 0.0682 µM | 0.172 µM |
| Cc1nc2ccc(-c3cc(N[C@@H]4CCOC[C@H]4O)ncc3Cl)nc2n1C(C)C [Example D05, 1,5-anhydro-3-({5-chloro-4-[2-methyl-3-(propan-2-yl)-3H-imidazo[4,5-b]pyridin-5-yl]pyridin-2-yl}amino)-2,3-dideoxy-D-threo-pentitol] | 0.0022 µM | 0.0394 µM | 0.0857 µM | 0.258 µM |

Other lines, results leading:

| Ki (CDK4/Cyclin D1) | Ki (CDK6/Cyclin D3) | IC50 (CDK4) | IC50 (CDK6) | Structure (SMILES) |
| --- | --- | --- | --- | --- |
| 0.0002 µM | 0.0026 µM | 0.0114 µM | 0.0335 µM | C[C@H](O)c1nc2c(F)cc(-c3nc(N[C@@H]4CCOC[C@H]4O)ncc3Cl)cc2n1C(C)(C)C [Example A61, 1,5-anhydro-3-[(4-{1-tert-butyl-4-fluoro-2-[(1S)-1-hydroxyethyl]-1H-benzimidazol-6-yl}-5-chloropyrimidin-2-yl)amino]-2,3-dideoxy-D-threo-pentitol] |
| 0.0007 µM | 0.0143 µM | 0.0487 µM | 0.235 µM | CC(C)n1c(C(C)(C)O)nc2c(F)cc(-c3nc(N[C@@H]4CCOC[C@H]4O)ncc3F)cc21 [Example A68, 1,5-anhydro-2,3-dideoxy-3-({5-fluoro-4-[4-fluoro-2-(2-hydroxpropan-2-yl)-1-(propan-2-yl)-1H-benzimidazol-6-yl]pyrimidin-2-yl}amino)-D-threo-pentitol] |
| 0.0007 µM | 0.0049 µM | 0.101 µM | 0.238 µM | CC(C)n1c(C(F)F)nc2c(F)cc(-c3nc(N[C@@H]4CCN(S(C)(=O)=O)C[C@H]4O)ncc3Cl)cc21 [Example A69, (3R,4R)-4-({5-chloro-4-[2-(difluoromethyl)-4-fluoro-1-(propan-2-yl)-1H-benzimidazol-6-yl]pyrimidin-2-yl}amino)-1-(methanesulfonyl)piperidin-3-ol] |
| 0.0003 µM | 0.005 µM | 0.0332 µM | 0.103 µM | COCc1nc2c(F)cc(-c3nc(N[C@@H]4CCN(S(C)(=O)=O)C[C@H]4O)ncc3Cl)cc2n1C(C)C [Example A75, (3R,4R)-4-({5-chloro-4-[4-fluoro-2-(methoxymethyl)-1-(propan-2-yl)-1H-benzimidazol-6-yl]pyrimidin-2-yl}amino)-1-(methanesulfonyl)piperidin-3-ol] |
| 0.0002 µM | 0.0028 µM | 0.0401 µM | 0.0977 µM | CC(C)n1c(CO)nc2c(F)cc(-c3nc(N[C@@H]4CCN(S(C)(=O)=O)C[C@H]4O)ncc3Cl)cc21 [Example A87, (3R,4R)-4-({5-chloro-4-[4-fluoro-2-(hydroxymethyl)-1-(propan-2-yl)-1H-benzimidazol-6-yl]pyrimidin-2-yl}amino)-1-(methanesulfonyl)piperidin-3-ol] |
| 0.0005 µM | 0.012 µM | 0.118 µM | 0.57 µM | Cc1nc2c(F)cc(-c3nc(N[C@@H]4CCN(S(C)(=O)=O)C[C@H]4O)ncc3Cl)cc2n1C1COC1 [Example A89, (3R,4R)-4-({5-chloro-4-[4-fluoro-2-methyl-1-(oxetan-3-yl)-1H-benzimidazol-6-yl]pyrimidin-2-yl}amino)-1-(methanesulfonyl)piperidin-3-ol] |
| 0.0001 µM | 0.0017 µM | 0.0149 µM | 0.0257 µM | CC(C)n1c(C(C)(C)O)nc2c(F)cc(-c3nc(N[C@@H]4CCN(S(C)(=O)=O)C[C@H]4O)ncc3Cl)cc21 [Example A91, (3R,4R)-4-({5-chloro-4-[4-fluoro-2-(2-hydroxypropan-2-yl)-1-(propan-2-yl)-1H-benzimidazol-6-yl]pyrimidin-2-yl}amino)-1-(methanesulfonyl)piperidin-3-ol] |
| 0.0006 µM | 0.0139 µM | 0.0385 µM | 0.145 µM | CC(C)n1c(C(C)(C)O)nc2c(F)cc(-c3nc(N[C@@H]4CCOC[C@H]4O)ncc3Cl)cc21 [Example A94, 1,5-anhydro-3-({5-chloro-4-[4-fluoro-2-(2-hydroxypropan-2-yl)-1-(propan-2-yl)-1H-benzimidazol-6-yl]pyrimidin-2-yl}amino)-2,3-dideoxy-D-threo-pentitol] |
| 0.0041 µM | 0.0893 µM | 0.584 µM | 1.35 µM | CC(C)n1c(C2CNC2)nc2c(F)cc(-c3nc(N[C@@H]4CCOC[C@H]4O)ncc3Cl)cc21 [Example C02, 1,5-anhydro-3-({4-[2-(azetidin-3-yl)-4-fluoro-1-(propan-2-yl)-1H-benzimidazol-6-yl]-5-chloropyrimidin-2-yl}amino)-2,3-dideoxy-D-threo-pentitol] |
